Reference: US20230085307A1, “PYRIDAZINONE COMPOUND AND HERBICIDE” (NISSAN CHEMICAL CORPORATION, priority 2019, published 2023)

Columns and labels:
late watergrass = assay: Test Example 2: herbicidal activity, application during weed generation under submerged conditions (Table 17, symbol A); type: in vivo, late watergrass (Echinochloa oryzicola); conditions: AAH 320 g/ha; application during weed generation, submerged conditions
Summary of the method: (§1)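 Mixed weed seedlings in alluvial soil under a 4 cm water layer, greenhouse-grown at 25–30° C. Compound given as a diluted emulsion into the floodwater at the 1–2 leaf stage; response graded after three weeks.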

Japanese bulrush = assay: Test Example 2: herbicidal activity, application during weed generation under submerged conditions (Table 17, symbol B); type: in vivo, Japanese bulrush (Schoenoplectus juncoides); conditions: AAH 320 g/ha; application during weed generation, submerged conditions
Summary of the method: as §1

barnyard grass [1] = assay: Test Example 3: herbicidal effect by foliage application, Wagner pot (Table 18, symbol H); type: in vivo, barnyard grass (Echinochloa crus-galli); conditions: 320 g/ha
Summary of the method: (§2)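 Plants were sown in alluvial soil held under 0.1–0.5 cm standing water and grown 14 days in a greenhouse at 25–30 °C. An emulsifiable formulation, water-diluted to the set dose, was then sprayed onto the foliage, and effects were scored three weeks later using previously defined criteria.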

rice flat sedge = assay: Test Example 3: herbicidal effect by foliage application, Wagner pot (Table 18, symbol E); type: in vivo, rice flat sedge (Cyperus iria); conditions: 320 g/ha
Summary of the method: as §2

southern crabgrass [2] = assay: Test Example 4: herbicidal effect by soil treatment (Table 19, symbol F); type: in vivo, southern crabgrass (Digitaria ciliaris); conditions: amount of applied herbicide 320 g/ha
Summary of the method: (§3)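 Step 1: sow seeds in sterilized diluvial soil, cover ~1.5 cm. Step 2: spray diluted emulsion onto soil surface at predetermined rate. Step 3: greenhouse, 25–30° C, three weeks. Step 4: grade effect on each plant by earlier criteria.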

green foxtail = assay: Test Example 4: herbicidal effect by soil treatment (Table 19, symbol G); type: in vivo, green foxtail (Setaria viridis); conditions: amount of applied herbicide 320 g/ha
Summary of the method: as §3

barnyard grass [3] = assay: Test Example 4: herbicidal effect by soil treatment (Table 19, symbol H); type: in vivo, barnyard grass (Echinochloa crus-galli); conditions: amount of applied herbicide 320 g/ha
Summary of the method: as §3

wild oat [4] = assay: Test Example 4: herbicidal effect by soil treatment (Table 19, symbol I); type: in vivo, wild oat (Avena fatua); conditions: amount of applied herbicide 320 g/ha
Summary of the method: as §3

Italian ryegrass [5] = assay: Test Example 4: herbicidal effect by soil treatment (Table 19, symbol K); type: in vivo, Italian ryegrass (Lolium multiflorum); conditions: amount of applied herbicide 320 g/ha
Summary of the method: as §3

velvetleaf = assay: Test Example 4: herbicidal effect by soil treatment (Table 19, symbol M); type: in vivo, velvetleaf (Abutilon theophrasti); conditions: amount of applied herbicide 320 g/ha
Summary of the method: as §3

redroot pigweed [6] = assay: Test Example 4: herbicidal effect by soil treatment (Table 19, symbol N); type: in vivo, redroot pigweed (Amaranthus retroflexus); conditions: amount of applied herbicide 320 g/ha
Summary of the method: as §3

lambsquarters [7] = assay: Test Example 4: herbicidal effect by soil treatment (Table 19, symbol O); type: in vivo, lambsquarters (Chenopodium album); conditions: amount of applied herbicide 320 g/ha
Summary of the method: as §3

chickweed = assay: Test Example 4: herbicidal effect by soil treatment (Table 19, symbol P); type: in vivo, common chickweed (Stellaria media); conditions: amount of applied herbicide 320 g/ha
Summary of the method: as §3

southern crabgrass [8] = assay: Test Example 5: herbicidal effect by foliage application, plastic box (Table 20, symbol F); type: in vivo, southern crabgrass (Digitaria ciliaris); conditions: foliage application, 320 g/ha, three weeks after application
Summary of the method: (§4)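 Foliar spray test: emulsion formulation diluted in water to a set application rate, sprayed onto 14-day-old plants raised in diluvial soil at 25° C to 30° C under glass. Both herbicidal effect and crop effect rated visually three weeks later.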

barnyard grass [9] = assay: Test Example 5: herbicidal effect by foliage application, plastic box (Table 20, symbol H); type: in vivo, barnyard grass (Echinochloa crus-galli); conditions: foliage application, 320 g/ha, three weeks after application
Summary of the method: as §4

wild oat [10] = assay: Test Example 5: herbicidal effect by foliage application, plastic box (Table 20, symbol I); type: in vivo, wild oat (Avena fatua); conditions: foliage application, 320 g/ha, three weeks after application
Summary of the method: as §4

blackgrass = assay: Test Example 5: herbicidal effect by foliage application, plastic box (Table 20, symbol J); type: in vivo, blackgrass (Alopecurus myosuroides); conditions: foliage application, 320 g/ha, three weeks after application
Summary of the method: as §4

Italian ryegrass [11] = assay: Test Example 5: herbicidal effect by foliage application, plastic box (Table 20, symbol K); type: in vivo, Italian ryegrass (Lolium multiflorum); conditions: foliage application, 320 g/ha, three weeks after application
Summary of the method: as §4

windgrass = assay: Test Example 5: herbicidal effect by foliage application, plastic box (Table 20, symbol L); type: in vivo, windgrass (Apera spica-venti); conditions: foliage application, 320 g/ha, three weeks after application
Summary of the method: as §4

redroot pigweed [12] = assay: Test Example 5: herbicidal effect by foliage application, plastic box (Table 20, symbol N); type: in vivo, redroot pigweed (Amaranthus retroflexus); conditions: foliage application, 320 g/ha, three weeks after application
Summary of the method: as §4

lambsquarters [13] = assay: Test Example 5: herbicidal effect by foliage application, plastic box (Table 20, symbol O); type: in vivo, lambsquarters (Chenopodium album); conditions: foliage application, 320 g/ha, three weeks after application
Summary of the method: as §4

persian speedwell = assay: Test Example 5: herbicidal effect by foliage application, plastic box (Table 20, symbol R); type: in vivo, Persian speedwell (Veronica persica); conditions: foliage application, 320 g/ha, three weeks after application
Summary of the method: as §4

SMILES | herbicidal effect rating, A: late watergrass (late watergrass) | herbicidal effect rating, B: Japanese bulrush (Japanese bulrush) | herbicidal effect on H (barnyard grass), rating 0-5 (barnyard grass [1]) | herbicidal effect on E (rice flat sedge), rating 0-5 (rice flat sedge) | herbicidal effect rating, F: southern crabgrass (southern crabgrass [2]) | herbicidal effect rating, G: green foxtail (green foxtail) | herbicidal effect rating, H: barnyard grass (barnyard grass [3]) | herbicidal effect rating, I: wild oat (wild oat [4]) | herbicidal effect rating, K: Italian ryegrass (Italian ryegrass [5]) | herbicidal effect rating, M: velvetleaf (velvetleaf) | herbicidal effect rating, N: redroot pigweed (redroot pigweed [6]) | herbicidal effect rating, O: lambsquarters (lambsquarters [7]) | herbicidal effect rating, P: chickweed (chickweed) | herbicidal effect grade, F: southern crabgrass (southern crabgrass [8]) | herbicidal effect grade, H: barnyard grass (barnyard grass [9]) | herbicidal effect grade, I: wild oat (wild oat [10]) | herbicidal effect grade, J: blackgrass (blackgrass) | herbicidal effect grade, K: Italian ryegrass (Italian ryegrass [11]) | herbicidal effect grade, L: windgrass (windgrass) | herbicidal effect grade, N: redroot pigweed (redroot pigweed [12]) | also measured
CCCC(=O)Oc1c(C)nn(C)c(=O)c1-c1c(-c2ccc(C(C)=NOC)cc2)sc2ccccc12 [1-044] | 4 (Herbicidal rate of 70% or more and less than 90%) | 3 (Herbicidal rate of 40% or more and less than 70%) | 4 (Herbicidal rate of 70% or more and less than 90%) | 5 (Herbicidal rate of 90% or more (almost completely withered)) | 2 (Herbicidal rate of 20% or more and less than 40%) | 4 (Herbicidal rate of 70% or more and less than 90%) | 0 (Herbicidal rate of 5% or less (almost no effect)) | 0 (Herbicidal rate of 5% or less (almost no effect)) | 2 (Herbicidal rate of 20% or more and less than 40%) | 0 (Herbicidal rate of 5% or less (almost no effect)) | 4 (Herbicidal rate of 70% or more and less than 90%) | 4 (Herbicidal rate of 70% or more and less than 90%) | 5 (Herbicidal rate of 90% or more (almost completely withered)) | 4 (Herbicidal rate of 70% or more and less than 90%) | 3 (Herbicidal rate of 40% or more and less than 70%) | 4 (Herbicidal rate of 70% or more and less than 90%) | 3 (Herbicidal rate of 40% or more and less than 70%) | 4 (Herbicidal rate of 70% or more and less than 90%) | 3 (Herbicidal rate of 40% or more and less than 70%) | 5 (Herbicidal rate of 90% or more (almost completely withered)) | herbicidal effect grade, O: lambsquarters (lambsquarters [13]): 4 (Herbicidal rate of 70% or more and less than 90%); herbicidal effect grade, R: persian speedwell (persian speedwell): 5 (Herbicidal rate of 90% or more (almost completely withered))
Cc1cc(-c2sc3ccccc3c2-c2c(O)c(C)nn(C)c2=O)ccc1F [1-051] | 2 (Herbicidal rate of 20% or more and less than 40%) | 0 (Herbicidal rate of 5% or less (almost no effect)) | 4 (Herbicidal rate of 70% or more and less than 90%) | 5 (Herbicidal rate of 90% or more (almost completely withered)) | 4 (Herbicidal rate of 70% or more and less than 90%) | 5 (Herbicidal rate of 90% or more (almost completely withered)) | 3 (Herbicidal rate of 40% or more and less than 70%) | 0 (Herbicidal rate of 5% or less (almost no effect)) | 3 (Herbicidal rate of 40% or more and less than 70%) | 4 (Herbicidal rate of 70% or more and less than 90%) | 4 (Herbicidal rate of 70% or more and less than 90%) | 4 (Herbicidal rate of 70% or more and less than 90%) | 3 (Herbicidal rate of 40% or more and less than 70%) | 3 (Herbicidal rate of 40% or more and less than 70%) | 3 (Herbicidal rate of 40% or more and less than 70%) | 3 (Herbicidal rate of 40% or more and less than 70%) | 0 (Herbicidal rate of 5% or less (almost no effect)) | 3 (Herbicidal rate of 40% or more and less than 70%) | 4 (Herbicidal rate of 70% or more and less than 90%) | 5 (Herbicidal rate of 90% or more (almost completely withered)) | herbicidal effect grade, O: lambsquarters (lambsquarters [13]): 3 (Herbicidal rate of 40% or more and less than 70%); herbicidal effect grade, R: persian speedwell (persian speedwell): 5 (Herbicidal rate of 90% or more (almost completely withered))
CCOc1cc(F)ccc1-c1sc2ccccc2c1-c1c(O)c(C)nn(C)c1=O [1-061] | 0 (Herbicidal rate of 5% or less (almost no effect)) | 3 (Herbicidal rate of 40% or more and less than 70%) | 5 (Herbicidal rate of 90% or more (almost completely withered)) | 5 (Herbicidal rate of 90% or more (almost completely withered)) | 5 (Herbicidal rate of 90% or more (almost completely withered)) | 5 (Herbicidal rate of 90% or more (almost completely withered)) | 4 (Herbicidal rate of 70% or more and less than 90%) | 3 (Herbicidal rate of 40% or more and less than 70%) | 3 (Herbicidal rate of 40% or more and less than 70%) | 0 (Herbicidal rate of 5% or less (almost no effect)) | 4 (Herbicidal rate of 70% or more and less than 90%) | 3 (Herbicidal rate of 40% or more and less than 70%) | 5 (Herbicidal rate of 90% or more (almost completely withered)) | 5 (Herbicidal rate of 90% or more (almost completely withered)) | 5 (Herbicidal rate of 90% or more (almost completely withered)) | 5 (Herbicidal rate of 90% or more (almost completely withered)) | 5 (Herbicidal rate of 90% or more (almost completely withered)) | 4 (Herbicidal rate of 70% or more and less than 90%) | 5 (Herbicidal rate of 90% or more (almost completely withered)) | 5 (Herbicidal rate of 90% or more (almost completely withered)) | herbicidal effect grade, O: lambsquarters (lambsquarters [13]): 4 (Herbicidal rate of 70% or more and less than 90%); herbicidal effect grade, R: persian speedwell (persian speedwell): 5 (Herbicidal rate of 90% or more (almost completely withered))
